Laboratory results: patent publication US8666675B2, “Computer method and system for predicting physical properties using a conceptual segment model” (Aspen Technology, Inc., priority 2004, dated 2014)

Legend:
[1] = Solvent characteristics (hydrophobic / polar / hydrophilic / complex); type: physicochemical
From the text: […] conceptual segments were defined for nonelectrolyte molecules: a hydrophobic segment, a polar segment, a hydrophilic segment and a solvation segment. […] Real molecules in turn are used as reference molecules for the conceptual segments and available phase equilibrium data of these reference molecules are used to identify NRTL binary parameters for the conceptual segments. […] The study was focused on the 59 ICH solvents used in pharmaceutical process design.
Hydrocarbon solvents (aliphatic or aromatic), halogenated hydrocarbons, and ethers are mainly hydrophobic. Ketones, esters and amides are both hydrophobic and polar. Alcohols, glycols, and amines may have both substantial hydrophilicity and hydrophobicity. Acids are complex, with hydrophilicity, polarity, and hydrophobicity.

[2] = compiled from internet websites and Aspen Properties v2004.1; cited from earlier work
[3] = cited from earlier work

Row | Molecule | Solvent characteristics [1] | dielectric constant at 298.15 K [2] | solubility (data) ([3]; in benzene, cyclohexane, and heptane) | solubility ([3]; in chloroform and DMF, 298.15K)
1 | CC(C)O [ISOPROPYL-ALCOHOL, Isopropyl-alcohol] | Hydrophobic/ | 19.9 |  | 
2 | C[S+](C)[O-] [Dimethyl-sulfoxide] | Polar | 47.2 |  | 
3 | COCCOC [1,2-DIMETHOXYETHANE, 1,2-Dimethoxyethane] | Polar |  |  | 
4 | CCCCCO [1-PENTANOL, 1-Pentanol] | Hydrophobic/ | 13.9 |  | 
5 | O=C([O-])c1ccccc1O.[Na+] [sodium salicylate] |  |  | very low but measurable solubility | 
6 | CC(=O)CC(C)C [METHYL-ISOBUTYL-KETONE, Methyl-isobutyl-ketone] | Hydrophobic/Polar | 13.1 |  | 
7 | OCCO [Ethylene-glycol] | Hydrophilic |  |  | 
8 | CCOC(C)=O [ETHYL-ACETATE, Ethyl-acetate] | Hydrophobic/Polar | 6.02 |  | 
9 | ClC(Cl)(Cl)Cl [CARBON-TETRACHLORIDE, Carbon-tetrachloride] | Hydrophobic | 2.23 |  | 
10 | CCOCCO [2-ETHOXYETHANOL, 2-Ethoxyethanol] | Hydrophobic/ |  |  | 
11 | C1CCOC1 [TETRAHYDROFURAN, Tetrahydrofuran] | Polar | 7.52 |  | 
12 | CC(C)c1ccccc1 [CUMENE, Cumene] | Hydrophobic | 2.22 |  | 
13 | ClC=C(Cl)Cl [TRICHLOROETHYLENE, Trichloroethylene] | Hydrophobic | 3.42 |  | 
14 | CCC(C)=O [METHYL-ETHYL-KETONE, Methyl-ethyl-ketone] | Hydrophobic/Polar | 18.5 |  | 
15 | CCN(CC)CC [TRIETHYLAMINE, Triethylamine] | Hydrophobic/Polar | 2.44 |  | 
16 | CCCCCCC [N-HEPTANE, n-Heptane] | Hydrophobic | 1.92 |  | 
17 | ClCCCl [1,2-DICHLOROETHANE, 1,2-Dichloroethane] | Hydrophobic | 10.19 |  | 
18 | CC(C)=O [ACETONE, Acetone] | Polar | 20.83 |  | 
19 | CC(=O)OCC(C)C [ISOBUTYL-ACETATE, Isobutyl-acetate] | Polar | 5.6 |  | 
20 | CC(C)CO [ISOBUTANOL, Isobutanol] | Hydrophobic/ | 17.9 |  | 
21 | CC(=O)OC(C)C [ISOPROPYL-ACETATE, Isopropyl-acetate] | Polar |  |  | 

Row | Molecule | Solvent characteristics [1] | dielectric constant at 298.15 K [2] | solubility (data) ([3]; in benzene, cyclohexane, and heptane) | solubility ([3]; in chloroform and DMF, 298.15K)
22 | CCCO [1-PROPANOL, 1-Propanol] | Hydrophobic/ | 20.1 |  | 
23 | Cc1cccc(C)c1 [M-XYLENE, m-Xylene] | Hydrophobic | 2.24 |  | 
24 | ClCCl [DICHLOROMETHANE, Dichloromethane] | Polar | 8.9 |  | 
25 | O [WATER, Water] | Hydrophilic | 78.54 |  | 
26 | CN(C)C=O [N,N-DIMETHYLFORMAMIDE, N,N-Dimethylformamide] | Polar | 38.3 |  | 
27 | CC(Cl)(Cl)Cl [1,1,1-TRICHLOROETHANE, 1,1,1-Trichloroethane] | Hydrophobic | 7.5 |  | 
28 | CC#N [ACETONITRILE, Acetonitrile] | Polar | 36.97 |  | 
29 | CC(=O)O [ACETIC-ACID, Acetic acid] | Complex | 6.13 |  | 
30 | O=C(CCCN1CCC(O)(c2ccc(Cl)cc2)CC1)c1ccc(F)cc1 [Haloperidol] |  |  |  | unusually high solubilities
31 | c1ccccc1 [BENZENE, Benzene] | Hydrophobic | 2.27 |  | 
32 | CN1CCCC1=O [N-METHYL-2-PYRROLIDONE, N-Methyl-2-pyrrolidone] | Hydrophobic | 33 |  | 
33 | COC(C)(C)C [METHYL-TERT-BUTYL-ETHER, Methyl-tert-butyl-ether] | Hydrophobic | 2.6 |  | 
34 | CC(C)CCO [3-METHYL-1-BUTANOL, 3-Methyl-1-butanol] | Hydrophobic/ | 14.7 |  | 
35 | CCCCCC [N-HEXANE, n-Hexane] | Hydrophobic |  |  | 
36 | CCOC=O [ETHYL-FORMATE, Ethyl-formate] | Polar | 7.16 |  | 
37 | COCCO [2-METHOXYETHANOL, 2-Methoxyethanol] | Hydrophobic/ |  |  | 
38 | COC(C)=O [METHYL-ACETATE, Methyl-acetate] | Polar | 6.68 |  | 
39 | CCCCC [N-PENTANE, n-Pentane] | Hydrophobic | 1.84 |  | 
40 | c1ccncc1 [PYRIDINE, Pyridine] | Polar |  |  | 
41 | CCCCO [1-BUTANOL, 1-Butanol] | Hydrophobic/ | 17.7 |  | 
42 | C[N+](=O)[O-] [NITROMETHANE, Nitromethane] | Polar | 6.26 |  | 

Row | Molecule | Solvent characteristics [1] | dielectric constant at 298.15 K [2] | solubility (data) ([3]; in benzene, cyclohexane, and heptane) | solubility ([3]; in chloroform and DMF, 298.15K)
43 | O=S1(=O)CCCC1 [SULFOLANE, Sulfolane] | Polar | 43.3 |  | 
44 | CCCCOC(C)=O [N-BUTYL-ACETATE, n-Butyl-acetate] | Hydrophobic/Polar | 5.1 |  | 
45 | O=CO [FORMIC-ACID, Formic-acid] | Complex |  |  | 
46 | CC1CCCCC1 [METHYLCYCLOHEXANE, Methylcyclohexane] | Polar | 2.02 |  | 
47 | ClC=CCl [1,2-DICHLOROETHYLENE, 1,2-Dichloroethylene] | Hydrophobic | 4.6 |  | 
48 | CCOCC [DIETHYL-ETHER, Diethyl-ether] | Hydrophobic | 4.26 |  | 
49 | COc1ccccc1 [ANISOLE, Anisole] | Hydrophobic | 4.3 |  | 
50 | ClC(Cl)Cl [CHLOROFORM, Chloroform] | Hydrophobic |  |  | 
51 | CCO [ETHANOL, Ethanol] | Hydrophobic/ | 24.11 |  | 
52 | CCCOC(C)=O [N-PROPYL-ACETATE, n-propyl-acetate] | Hydrophobic/Polar | 6 |  | 
53 | C1COCCO1 [1,4-DIOXANE, 1,4-Dioxane] | Polar | 2.21 |  | 
54 | Clc1ccccc1 [CHLOROBENZENE, Chlorobenzene] | Hydrophobic | 5.56 |  | 
55 | NC=O [FORMAMIDE, Formamide] | Complex | 109.5 |  | 
56 | CCC(C)O (stereo not drawn) [2-BUTANOL, 2-Butanol] | Hydrophobic/ | 15.8 |  | 
57 | Cc1ccccc1 [TOLUENE, Toluene] | Hydrophobic | 2.36 |  | 
58 | C=C(Cl)Cl [1,1-DICHLOROETHYLENE, 1,1-Dichloroethylene] | Hydrophobic | 4.6 |  | 
59 | c1ccc2c(c1)CCCC2 [1,2,3,4-TETRAHYDRONAPHTHALENE, 1,2,3,4-Tetrahydronaphthalene] | Hydrophobic |  |  | 
60 | CCCCCCCCO [1-OCTANOL, 1-Octanol] | Hydrophobic/ | 10.3 |  | 
61 | methyl-butyl-ketone (2-hexanone) | Hydrophobic/Polar | 14.6 |  | 
62 | CO [METHANOL, Methanol] | Hydrophobic/ | 32.62 |  | 
63 | C1CCCCC1 [CYCLOHEXANE, Cyclohexane] | Hydrophobic | 2.02 |  | 
